Assay: Human HepG2 cell viability assay in 384 well format
Type: toxicity, cell-based
Design: dose 125 nL, time 70.5 hour; concentration not given beside the values
Conditions: HepG2 cells, read-out: Inhibition

SMILES | cytotoxicity at 70.5 h
Cc1nn(C)c2c(=O)n(C(C)C)c(NCCc3ccccc3)nc12 | 24.5%
CCCn1c(N2CCCCC2)nc2c(C)nn(C)c2c1=O | 15.3%
CCOc1ccc(NC(C)=O)cc1S(=O)(=O)Nc1ccon1 | 4.6%
COc1ccc(NC(C)=O)cc1S(=O)(=O)Nc1ccon1 | -5.66%
CC(C)(C)NCc1nn(Cc2ccccc2)nc1-c1ccccc1 | 5.21%
c1ccc(OCCCNCc2cccs2)nc1 | 10.1%
Fc1cccc(Cl)c1CNCCCOc1ccccn1 | -3.63%
Cc1ccc(CNc2n[nH]c(C)n2)cc1 | -10.9%
Cc1ccc(Cl)cc1N1CCN(CC(=O)NCc2ccco2)CC1 | 7.45%
CC(C)c1cc2c(s1)NC(c1ccccc1)NC2=O (configuration not stated) | -12.1%
Cn1c(SCC(N)=O)nnc1-c1csc2c1CCCC2 | -9.11%
CCOc1cc(C(=O)n2cc(C)cn2)cc(OCC)c1OCC | 1.34%
O=S(=O)(c1ccc(N2CCCCC2)c2nonc12)N1CCCCC1 | -11.2%
O=S(=O)(c1cc(F)ccc1F)n1cc(Cl)cn1 | -4.29%
NC(=O)c1c(-c2ccc(Cl)cc2Cl)csc1NC(=O)CCCC(=O)O | 4.32%
CCn1cc(S(=O)(=O)N2CCN(S(=O)(=O)c3ccc(Br)s3)CC2)cn1 | -12%
CCOc1ccc(C(=O)n2cccn2)cc1 | -4.2%
CC(C)(C)NC(=O)N1CCN(Cc2cccnc2)CC1 | -3.39%
Cc1ccc(NC(=O)N2CCN(Cc3ccccn3)CC2)cc1Cl | 30.4%
Cc1c(Cl)cccc1NC(=O)N1CCN(Cc2ccccn2)CC1 | -3.15%
Cn1cc(CNS(=O)(=O)c2cc(F)ccc2F)cn1 | -6.49%
CCOC(=O)Cn1nnnc1-c1ccccc1 | -0.715%
CC(C)NC(=O)COc1ccc(-c2nc(C(C)C)no2)cc1 | -19.4%
Cc1ccc(NC(C)(C)c2nnnn2-c2ccc(Cl)cc2)c(C)c1 | 0.988%

SMILES | cytotoxicity at 70.5 h
CC1(C)CC2(CCO1)NC(=O)c1cc(Br)ccc1-n1nnnc12 (configuration not stated) | 1.03%
Cc1cccc(-n2nnnc2C(C)(C)Nc2ccccc2C)c1 | 0.855%
COc1ccc(-n2nnnc2C2(NCc3ccco3)CCCCC2)cc1 | -9.96%
CN(C)S(=O)(=O)N1CCCC(C)(c2ncc(C(N)=O)s2)C1 (configuration not stated) | 5.78%
Cc1nn(C)c(C)c1-c1cnc(CC2CCNCC2)cn1 | -4.79%
Cn1cc(CN2CCOC(c3cccc(-c4cccc(F)c4)n3)C2)cn1 (configuration not stated) | -4.34%
Oc1cc(-c2cccs2)nc(C2CCCN(CC3=CCCOC3)C2)n1 (configuration not stated) | -9.88%
O=C(c1cc2c(s1)CCC2)N1CCCC(c2cnccn2)C1 (configuration not stated) | -17%
COc1ccc2[nH]cc(C(=O)N3C[C@@H](O)[C@H](N4CCOCC4)C3)c2c1 | -9.96%
O=C(NCc1ccccc1)C1CN(c2ccccn2)CCO1 (configuration not stated) | -15.5%
Cc1cncc(C2CCCN2CCO)n1 (configuration not stated) | -9.94%
CNCC(=O)N1CCC(c2cccc(Oc3ccccc3)n2)CC1 | -7.76%
c1cc(C2CCCN2CC2CC2)n[nH]1 (configuration not stated) | -9.13%
c1ccc(CCN2CCCC2c2ccnc(Nc3ncccn3)n2)cc1 (configuration not stated) | -5.57%
CCn1ccc(-c2cc(NCCCOc3ccccc3C)nc(C)n2)n1 | -1.9%
CCC(=O)N1CCCC1c1n[nH]cc1-c1ccccc1F (configuration not stated) | -6.39%
CC(=O)N1CCOC(c2c(C(=O)NCCN(C)C)sc3ccccc23)C1 (configuration not stated) | -7.61%
CCCn1cc(C(=O)N2CCCC2(C)c2nc(C)cc(C)n2)cn1 (configuration not stated) | -13.9%
Cc1ccnn1CCNC(=O)C1CCN(S(=O)(=O)c2ccc(F)cc2)C1 (configuration not stated) | 6.47%
CCN1CCCC(O)(c2nc(C)c(CCOc3ccc(F)cc3)s2)CC1 (configuration not stated) | 13.4%
CN(C)S(=O)(=O)N1CCC(c2ccncc2)CC1 | -10.2%
CNc1nc(C2CCCN(C(=O)C(C)C)C2)nc2c1CN(C)CC2 (configuration not stated) | 9.57%
CN(C)S(=O)(=O)N1CCC(c2ccncn2)CC1 | -11.3%
Cc1nc(Nc2ncc(C)s2)cc(C2CCCN2S(C)(=O)=O)n1 (configuration not stated) | -13.7%

SMILES | cytotoxicity at 70.5 h
CS(=O)(=O)N1CCCC1c1cccc(Nc2nccs2)n1 (configuration not stated) | 28.9%
Cc1cnc2cc(C3CCN(C(=O)c4ccncc4)CC3)[nH]c2n1 | -12.8%
CC1(C(=O)NC2CCCC2)CN(c2cnccn2)CCO1 (configuration not stated) | -13.6%
COc1cccc([C@H]2CN(C(=O)c3ccccc3)[C@@H]3CCCN[C@H]23)c1 | 15.6%
c1cnc(N2CCCC(c3cc4cccnc4[nH]3)C2)nc1 (configuration not stated) | -8.49%
COCc1ccc(C(=O)N2CCC(c3cc4ncc(C)nc4[nH]3)C2)cc1 (configuration not stated) | -4.31%
c1cnc(N2CCC(c3cc4cccnc4[nH]3)CC2)nc1 | -5.37%
O=C(c1cc[nH]n1)N1CCCC1c1cnccn1 (configuration not stated) | -10.5%
COCC(=O)N1CC(c2csc(NC(C)=O)n2)C1 | -3.83%
CNC(=O)c1cn[nH]c1C1CCN(Cc2sccc2C)C1 (configuration not stated) | -5.33%
CNC(=O)c1cn[nH]c1C1CCN(Cc2cccc(C)c2OC)C1 (configuration not stated) | -3.82%
CN(C)c1nccc(C2CCN(C(=O)CO)CC2)n1 | 13.9%
CC(=O)N1CCN(CCOc2ccc(F)cc2)CC(C(N)=O)C1 (configuration not stated) | -9.44%
Cc1c(CN2C[C@@H](O)[C@H](Oc3cccc(F)c3)C2)cnn1C | -10.7%
CC1(C(=O)N2CCN(C3CCCC3)CC2)CNCCO1 (configuration not stated) | -7.45%
O=C(O)c1ccccc1CN1CCC(c2ccnc3ccnn23)CC1 | -4.52%
COC(=O)[C@H]1CN(C(=O)c2cscn2)C[C@@H]1c1ccc(F)cc1 | 0.296%
COc1ccc(CC(=O)NC(C)c2nc3cccnc3n2C(C)C)cc1 (configuration not stated) | 2.45%
CCc1c(C)noc1-c1cnc(NC2CC2)nc1-c1cnc(C)cn1 | -7.43%
Oc1ccc(C2Nc3ccccc3C3=NCCCN32)cc1 (configuration not stated) | -2.33%
O=C(c1cc[nH]n1)N1CCCC1c1ccccn1 (configuration not stated) | -4.38%
O=C(NC1CC1)C1(Cc2ccccc2-c2ccncc2)CCOCC1 | 7.42%
O=C(CCn1c(C(F)F)cc2cccnc21)NC1CC1 | -5.74%
Cc1cc2c(=O)n3c(nc2s1)CCN(C(=O)c1nn(C)cc1Cl)CC3 | -4.02%

SMILES | cytotoxicity at 70.5 h
CCn1cc(S(=O)(=O)NCC2(N3CCOCC3)CCCCC2)c(C)n1 | 28.1%
Cc1nn(C)cc1S(=O)(=O)NC1(CN2CCOCC2)CCCCC1 | -3.14%
Cc1cc(-c2cnc(C(C)C)nc2CN(C)C(=O)c2ccccn2)on1 | -6.43%
CCOCC(=O)N1CCC(c2cc3ncccc3c(O)n2)CC1 | -6.58%
CC(C)(C)c1nnc(NCC(=O)N2CCc3sccc3C2)s1 | -10.5%
COc1ccc(CCNC(=O)NCc2cccc(C(N)=O)c2)cc1OC | -15%
CC(C)(NC(=O)c1scnc1Cl)c1ccccc1 | -12.8%
CCCc1c(C(=O)N2CCN(Cc3ccccn3)CC2)cnn1C | -14.7%
CCCc1c(C(=O)N2CCN(c3cnccn3)CC2)cnn1C | -14.4%
CCN1CCN(C(=O)c2cc(F)cc3nc(C)c(C)nc23)CC1 | -12.2%
Cn1ccc(CS(=O)(=O)Cc2cccc(F)c2)cc1=O | -11%
Cc1ccc(C)c(CS(=O)(=O)Cc2ccn(C)c(=O)c2)c1 | -7.9%
N#Cc1cc(F)ccc1Cn1cncn1 | -9.13%
COc1ccc(CNCCc2cccc(C(N)=O)c2)cc1C | 11.7%
Cc1cn2c(n1)CCC(NC(=O)c1ccc(OCC3CC3)nc1)C2 (configuration not stated) | -3.71%
CC(C)c1nsc(N2CCn3c(nnc3-c3ccccc3)C2)n1 | -7.62%
O=C(Cc1cccc(F)c1F)NS(=O)(=O)c1ccc(Cl)cn1 | -6.06%
O=C(CNc1nc(C(F)(F)F)cs1)N1CCc2sccc2C1 | -8.73%
FC(F)(F)CCN(Cc1ccon1)C1CCCC1 | -7.02%
COc1cccc(CNCCc2cccc(C(N)=O)c2)c1 | -8.65%
CNc1nc(CS(=O)(=O)c2ccccc2)cs1 | -7.87%
CCOCCN1CCN(CCc2ccc3c(c2)CCO3)CC1 | 12.7%
NC(=O)CNC(c1ccccc1)c1ccccc1 | 17.2%
N#CC1(C(=O)N2CCOC(c3ccc(F)cc3)C2)CCCCC1 (configuration not stated) | -9.88%

SMILES | cytotoxicity at 70.5 h
CN(C)S(=O)(=O)NC1CC(=O)N(c2ccccc2Cl)C1 (configuration not stated) | -17.3%
COCC(=O)Nc1nnc2n(Cc3cccc(OC)c3)[nH]c(C)c1-2 | -5.86%
CC(C)c1nnc2n1CCN(C(C(N)=O)c1ccc(F)cc1)C2 (configuration not stated) | -21.3%
CC(C)(C)CNC(=O)c1ccc(C(=O)O)cc1 | -5.94%
O=C(NS(=O)(=O)c1cccnc1)C1CC(c2ccccc2)=NO1 (configuration not stated) | -4.92%
CCOC(C)C(=O)Nc1ccnn1-c1ccccc1C (configuration not stated) | 7.99%
O=C(Nc1cnn(CC(F)F)c1)c1cccc(-n2cnnn2)c1 | -1.49%
OCC(CO)Nc1nc(C(F)F)nc2ccccc12 | -3.24%
Cc1[nH]nc2ncc(C(=O)N3CCCC3c3noc(C(C)C)n3)cc12 (configuration not stated) | -19.5%
O=C(O)c1ccc(S(=O)(=O)Nc2cnn(CC(F)(F)F)c2)cc1 | 3.28%
Cc1ccc(OCCCC(=O)Nc2nonc2C)cc1C | 12%
COc1ccc(C2(NC(=O)c3ccc(=O)n(C)n3)CCCC2)cc1 | -12.4%
O=C(C1CCC1)N1C[C@@H](c2ccsc2)[C@@H]2CN(C3CCCC3)CC[C@@H]21 | -3.74%
Cc1cc(N(C)C)nc(C2CCCNC2)n1 (configuration not stated) | -1.07%
CNC(=O)C1CNCCN1C(=O)c1ccc(C(F)(F)F)nc1C (configuration not stated) | -5.69%
CN1CCCc2cc(-c3cncn3CC(=O)NC(C)(C)C)ccc21 | -16.5%
CCOC(=O)c1n[nH]cc1-c1cncn1CCn1nc(C)c(C)c1C | -6.65%
CCN1c2ccc(-c3cncn3CC(=O)NC(C)(C)C)cc2CC1C (configuration not stated) | -7.81%
Cc1cc(N(C)C)nc(C2CCCN2)n1 (configuration not stated) | -3.78%
C=C(C)CN1CCN(Cc2cnc(-c3ccccc3C)nc2)CC1 | 23.9%
C=C(C)CN1CCN(Cc2cnc(-c3ccc(OC)cc3)nc2)CC1 | 9.18%

Source: ChEMBL document CHEMBL3507680, “University of Dundee, Gates Library screen for HepG2 cell viability”
